Holding throughout (assay): NCI-60 cell line screen, 48 h
Test [1] deals with M14 melanoma.
Test [2] deals with SK-OV-3 ovarian.
The subject of test [3] is HOP-62 NSCLC.
Test [4] concerns SF-268 CNS.
In test [5] the test system is MALME-3M melanoma.
Test [6] has as its system HCT-15 colon.
In test [7] the test system is EKVX NSCLC.
Test [8] relates to TK-10 renal.
Test [9] relates to ACHN renal.
Test [10] deals with HL-60(TB) leukemia.
Test [11] relates to COLO 205 colon.
For test [12], the system named is SR leukemia.
For test [13], the system named is A498 renal.
Test [14] relates to CCRF-CEM leukemia.
The subject of test [15] is SF-295 CNS.

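A five-concentration, 48-hour dose response in 96-well plates underlies each endpoint, interpolated linearly between surrounding concentrations. At the TGI there is no net growth.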 Where only a bound is given, the exact number is not on record here.

As for `COC(=O)C12C3C4C5(C(=O)OC)C(C1C35C(=O)N(C(C)C)C(C)C)C42C(=O)N(C(C)C)C(C)C` (configuration not stated), the TGI is above 50 µM in [1]; above 50 µM in test [2]; above 50 µM in test [3]; above 50 µM in test [4]; above 50 µM in [5]; above 33.7 µM in [6]. In addition, the TGI in test [7], in [8], in test [9], in [10], in test [11] and in test [12] was above 50 µM in each case. Besides, the TGI in test [13], in test [14] and in test [15] was above 50 µM each time.
In the case of `Cc1ccc2c(c1CCCC(C)(C)O)C(=O)C(=O)C(C(C)C)=C2O`, the TGI in [1], in [2], in [4], in test [5], in test [6] and in [7] was above 100 µM throughout. In addition, the TGI in [8], in test [9], in test [10], in test [11], in test [12] and in test [13] was above 100 µM in each case. The TGI in test [14] and in [15] was above 100 µM in each case.
Turning to `Cc1ccc(C2CC(c3ccco3)=NN2c2ccccc2)o1` (configuration not stated), the TGI in [1], in [3], in [4], in test [5], in test [6] and in test [7] was above 100 µM throughout. Moreover, the TGI in test [8], in [9], in [10], in test [11], in test [12] and in test [14] was above 100 µM each time. In test [15], this compound yielded a TGI above 100 µM.
With `Nc1ccc(C(=O)NN2C(=O)C(Cl)C2c2ccccc2Cl)cc1` (configuration not stated), the TGI was determined as 25.9 µM in test [1]; 29.6 µM in test [2]; 35.4 µM in test [3]; 15.2 µM in test [4]; 31.4 µM in test [5]; 10.2 µM in test [6]. Further, the TGI in test [7] was determined as 31.7 µM; in [8], 30.1 µM; in test [9], 30 µM; in test [11] it was 28.1 µM; in test [12], 31.9 µM; in test [14], 6.67 µM. In test [15], this compound displayed a TGI of 12.6 µM.
Turning to `Cc1cn2c(=O)c3ccccc3nc2s1`, the TGI in [1], in test [2], in test [3], in test [4], in test [5] and in test [7] was above 100 µM each time. Further, the TGI in test [8], in [9], in test [10], in [11], in [12] and in test [13] was above 100 µM each time. In addition, the TGI in test [14] and in test [15] was above 100 µM each time.
For the compound `C/C(=C1/CCCC2(N=NCC2c2ccccc2)C1=O)c1ccccc1` (configuration not stated), the TGI in test [1] was 29 µM; in test [2], above 100 µM; in test [4] it was above 100 µM; in test [5] it was 59.7 µM; in test [6], above 100 µM; in [7], above 100 µM. Further, the TGI was above 100 µM in [8]; above 100 µM in test [9]; 25.6 µM in [10]; 31.1 µM in test [11]; 51.2 µM in [12]; 66.1 µM in test [14]. Besides, in test [15], the TGI is above 100 µM.
Turning to `N#C/C(=C\c1ccc(O)c(O)c1)C(N)=O`, the TGI in test [1], in [2], in test [3], in test [4], in test [5] and in test [6] was above 100 µM in each case. The TGI in [7] is above 100 µM; in test [8] it was above 100 µM; in test [9] it was above 100 µM; in test [10] it was 23.9 µM; in test [11] it was above 100 µM; in [13] it was above 100 µM. Further, the TGI in [14] was 37.7 µM; in [15], above 100 µM.
Regarding `Cc1cccc(NC(=O)/C=C/c2ccc(N(CCC#N)CCC#N)cc2C)c1`, the TGI in [1], in test [2], in [3], in [4], in [5] and in test [6] was above 100 µM each time. Also, the TGI in test [7], in test [8], in [9], in [10], in [11] and in test [13] was above 100 µM throughout. The TGI in test [14] and in test [15] was above 100 µM throughout.
As to `CCCCCC(C[N+]1(C)CCOCC1)C(=O)/C=C/c1ccccc1` (configuration not stated), the TGI in test [1] was 25.9 µM; in test [2], above 88.6 µM; in [3] it was 69.2 µM; in test [5], 32 µM; in test [6], 25 µM; in test [7] it was 38.2 µM. Also, the TGI in test [8] stood at 37.8 µM; in test [9], 60.8 µM; in [10], 37.5 µM; in [11], 35.9 µM; in test [12], 39.1 µM; in [13], 31.7 µM. Further, the TGI was above 35.3 µM in [14] and 21.6 µM in test [15].
For `COC(=O)C(=C/c1ccc(OC)cc1)/C(C(=O)O)=C(/C)c1ccccc1`, the TGI in test [1], in test [2], in [3], in [5], in test [6] and in test [7] was above 100 µM in each case. Further, the TGI in test [8], in [9], in test [10], in [11], in test [12] and in test [13] was above 100 µM in each case. Besides, the TGI in [14] and in test [15] was above 100 µM throughout.
In the case of `COc1cc2c(cc1OCc1ccccc1)CNCC2`, the TGI in [1], in test [2], in test [3], in test [4], in test [5] and in test [6] was above 100 µM each time. The TGI in test [7], in [8], in test [9], in [10], in [11] and in test [13] was above 100 µM in each case. The TGI in [14] and in test [15] was above 100 µM throughout.
For `COc1ccc(C(=O)C(CO)Oc2ccccc2OC)cc1OC` (configuration not stated), the TGI in test [1], in test [2], in test [3], in [4], in [5] and in test [6] was above 100 µM each time. The TGI in test [7], in test [8], in test [9], in [10], in [11] and in test [13] was above 100 µM throughout. In addition, the TGI in test [14] and in test [15] was above 100 µM each time.
As for `O=c1[nH]cc(COCC(F)(F)C(F)(F)C(F)(F)C(F)F)c(=O)[nH]1`, the TGI in [1], in test [2], in [3], in [4], in test [5] and in test [6] was above 100 µM in each case. For the same compound, the TGI in test [7], in [8], in [9], in test [10], in test [11] and in [12] was above 100 µM throughout. Moreover, the TGI in test [14] and in [15] was above 100 µM throughout.
For `COc1cc2c(cc1OC)C(O)[C@H](Br)C(C)(C)O2` (some centres not stated), the TGI in test [1], in test [2], in test [3], in [4], in test [5] and in test [6] was above 100 µM in each case. The TGI in test [7], in [8], in test [9], in test [10], in test [11] and in test [12] was above 100 µM in each case. The TGI in test [14] and in [15] was above 100 µM throughout.
For the compound `CCN1CCN(c2ccc(Nc3ccnc4ccc5nn(C)nc5c34)cc2)CC1`, the TGI in test [1] turned out to be 30 µM; in test [2] it was 31.5 µM; in [3], 26.4 µM; in test [4], 29.8 µM; in test [5], 30.8 µM; in test [6], 27.6 µM. The TGI is 39.4 µM in test [8]; 28 µM in test [9]; above 100 µM in test [10]; 18.4 µM in [11]; above 100 µM in [12]; above 100 µM in test [14]. In test [15], this compound showed a TGI of 25.5 µM.

(Values after PubChem BioAssay (NCI).)
